Reference: patent US9751832B2, “Selective histone deactylase 6 inhibitors” (H. LEE MOFFITT CANCER CENTER AND RESEARCH INSTITUTE, INC., priority 2013, dated 2017)
Where two headings read alike, the source gives them in different places.

How the values were obtained:
HDAC1 = HDAC1 (Homo sapiens (Human), UniProt Q13547); assay: HDAC inhibition assay, HDAC1; assay type: biochemical
HDAC6 = HDAC6 (Homo sapiens (Human), UniProt Q9UBN7); assay: HDAC inhibition assay, HDAC6; assay type: biochemical
[1] = tested on: B16 murine melanoma cells; assay: B16 melanoma cell growth inhibition assay (MTS); assay type: cell-based; conditions: 48 h
Procedure: B16 murine melanoma cells were plated at 5×10^3/well in 96 well flat bottom plates. The following day, media was changed to that containing various concentrations of HDACi or matched DMSO vehicle concentrations diluted in complete medium done in triplicate. […] Briefly, 20 μL of reagent were added per well and incubated at 37° C. for 3 hours.

[2] = tested on: acetyl-α-tubulin and acetyl-H3 in B16 melanoma cells; assay: Tubulin and histone acetylation Western blot assay; assay type: cell-based, murine
Procedure: […]. B16 melanoma cells were plated at 10^5 cells/well in 12 well plates and allowed to adhere overnight. A 50 mM stock of compound was then added by serial dilutions in complete medium to the indicated concentrations. Cells were incubated for 24 h under humidified conditions (37° C., 5% CO2). Wells were then washed with cold PBS, and cells were lysed in a buffer containing 10 mM Tris-HCl pH 8.0, 10% SDS, […], 100 mM DTT, and 1× protease inhibitor (Roche). Cells were lysed for 30 min on ice and then sonicated for 8 min (8 cycles of 30 s on/30 s rest). Cells were then boiled for 10 min with 6× gel loading buffer and resolved on 4-15% gradient gels and subsequently transferred onto nitrocellulose membranes. Membranes were blocked with 5% milk in PBS-T and detection of specific antigens using antibodies against acetyl-H3 and H3 (Cell Signaling), and acetyl-α-tubulin and α-tubulin (Sigma). Bands were detected by scanning blots with LI-COR Odyssey imaging system using both 700 and 800 channels.

[3] = tested on: acetyl-tubulin and acetyl-histone3 in human melanoma cell lines; assay: Western blot of HDAC substrate acetylation in human melanoma cell lines; assay type: cell-based; conditions: for acetyl-tubulin and acetylation status of Histone 3: WM795 cells, 24 hrs, FIG. 47
Procedure: To confirm the selectivity of isotype specific HDACi, Western blot analysis was performed on the acetylation status of known HDAC substrates including histone H3 and H4, which are known Class I HDAC targets, and α-tubulin, a target for HDAC6. The doses required to impart the anti-proliferative effect coincided with that needed to increase acetylation of the respective HDAC substrates (FIG. 41F-41H). […] Conversely, HDAC6 selective inhibitors (HDAC6i) increase α-tubulin acetylation but not histone acetylation (FIG. 41F).

B16 melanoma = assay: In vivo B16 melanoma tumor growth in C57BL/6 mice; conditions: for Tumor growth: 25 mg/kg, intraperitoneal, three times weekly
[4] = tested on: melanoma antigens gp100, MART1, TYRP1 and TYRP2; assay: Expression of tumor antigens in human melanoma cells (qRT-PCR); assay type: cell-based; conditions: 48 hours
Procedure: (D) Expression of tumor antigens was measured in human WM164 non-target and HDAC6KD cells. (E) Expression of tumor antigens mart-1 and gp-100 was measured by western blot.

[5] = tested on: HuT-78, murine MCL, B16 and SM1 cells; assay: Cell viability of cancer cells (CellTiter 96 Aqueous ONE); assay type: cell-based, human and murine; conditions: 24 hrs, compared to DMSO
Procedure: Human cutaneous T-cell lymphoma (CTCL) HuT-78 (A), murine mantle cell lymphoma (MCL) (B), and murine melanoma B16 (C) and SM1 (D) cells were incubated with JB7-19, JB7-22, JB720 at different concentrations for 24 hrs. Cell viability was measured using CellTiter 96 Aqueous ONE solution (Promega, Madison, Wis.) and compared to DMSO treated control samples. Error bars represent standard deviation from triplicates.

[6] = tested on: IL-10 production in PEM and RAW264.7 cells; assay: IL-10 production in antigen presenting cells (ELISA); assay type: cell-based, murine; conditions: 24 hrs
Procedure: Murine peritoneal elicited primary macrophages (PEM)(A) and murine RAW264.7 (B) cells were incubated with JB7-19, JB7-22, JB720 at the concentration indicated on each chart. After 24 hrs, the production of IL-10 was measured by ELISA.

[7] = tested on: NRAS and BRAF mutant human melanoma cell lines; assay: Cell proliferation of human melanoma cell lines (MTS, 24 h); assay type: cell-based
Procedure: Cell proliferation was evaluated using various pan- and isotype selective HDACi in a broad panel of human melanoma cell lines. Briefly, cells were plated at 10×10^3/well in a 96 well flat bottom plate. The following day, media was changed to that containing different concentrations of HDACi or matched DMSO vehicle concentrations diluted in complete medium done in triplicate, all with a final concentration of less than 0.1% DMSO. Cells were incubated for 24 hours at 37° C. and 5% CO2. […] All values were then normalized and expressed as a percentage of medium control growth.

[8] = tested on: human melanoma cell lines; assay: Cell cycle analysis by propidium iodide staining; assay type: cell-based; conditions: FACS
Procedure: Cells were treated with indicated doses of HDAC inhibitors or DMSO control and then trypsinized, washed, and rendered into a single cell suspension in 1 mL of DPBS. 4 mL ice cold 200 proof ethyl alcohol was added dropwise while vortexing to fix cells. Samples were washed and resuspended in 75% ethanol solution overnight. Then, cells were washed in PBS+0.1% Triton X-100 and counted. Equal numbers of cells were then stained in a solution containing 10 μg/mL RNAseA+1 μg/mL propidium iodide for 2 hours at room temperature. Data was then acquired using a FACSCaliber with at least 10,000 events collected. Cell cycle analysis was completed using ModFit LT (Verity Software House, Topsham, Me.).

[9] = tested on: MHC expression on melanoma cells; assay: Surface marker analysis of melanoma cells by flow cytometry; assay type: cell-based, human and murine; conditions: 3 μM, 48 hours, B16 and WM793
Procedure: For surface marker analysis melanoma cells were treated with TubastatinA or DMSO for 48 hrs, and/or using Non target and HDAC6KD cell lines, Cells were singly stained with phycoerythryn (PE) conjugated antibodies against MHC I, MHC II, CD40, CD80, CD86. Conjugated antibodies were purchases from eBioscience (San Diego, Calif., USA). After staining for 30 minutes at 4° C., cells were washed three times and then resuspended in buffer containing DAPI (50 ng/mL) for viability. At least 10,000 events were collected using an LSR II (BD) and subsequently analyzed using FlowJo software.2.2.7.

[10] = tested on: JAK2/STAT3 phosphorylation in B16 murine melanoma cells; assay: JAK2/STAT3 phosphorylation in B16 melanoma in vivo
macrophages = assay: Tubastatin A treatment of macrophages (APCs) in vitro; assay type: cell-based
antigen-specific T-cells = assay: In vivo antigen-specific T-cell response to vaccination; design: species or system mice; conditions: in vivo treatment
[11] = tested on: STAT3 phosphorylation in APCs; assay: STAT3 phosphorylation and recruitment to the IL-10 gene promotor in APCs; assay type: cell-based
MCL = assay: In vivo treatment of MCL-bearing mice
B16 WT melanoma = assay: In vivo B16 melanoma tumor growth in SCID mice
Excerpt: To further characterize the relative contribution of anti-tumor immunity, specific subsets of cells were depleted via antibody depletion, which was confirmed by staining leukocytes from spleen. […] Taken together, these observations support the anti-melanoma activity of a functional immune system after HDAC6 inhibition.

[12] = Table 2, cyclic urea compounds, read-out: HDAC1 IC50
[13] = Table 2, cyclic urea compounds, read-out: HDAC6 IC50
[14] = Table 1B, read-out: IC50 (μM) HDAC1
[15] = Table 1B, read-out: IC50 (μM) HDAC6

HDAC1, sequence (Q13547 whole entry): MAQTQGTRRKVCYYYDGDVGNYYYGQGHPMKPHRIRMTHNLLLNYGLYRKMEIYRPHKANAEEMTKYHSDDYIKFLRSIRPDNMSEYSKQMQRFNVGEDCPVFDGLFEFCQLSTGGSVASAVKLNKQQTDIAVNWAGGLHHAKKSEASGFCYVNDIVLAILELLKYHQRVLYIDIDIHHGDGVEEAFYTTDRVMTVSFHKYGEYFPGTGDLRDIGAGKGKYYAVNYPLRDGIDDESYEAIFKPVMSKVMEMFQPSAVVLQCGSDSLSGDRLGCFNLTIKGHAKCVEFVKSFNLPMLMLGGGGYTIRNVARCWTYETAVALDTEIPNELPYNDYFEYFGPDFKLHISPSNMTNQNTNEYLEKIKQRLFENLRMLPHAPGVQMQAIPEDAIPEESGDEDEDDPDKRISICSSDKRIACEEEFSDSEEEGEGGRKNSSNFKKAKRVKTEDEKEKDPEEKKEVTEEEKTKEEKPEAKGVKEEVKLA
HDAC6, sequence (Q9UBN7 whole entry): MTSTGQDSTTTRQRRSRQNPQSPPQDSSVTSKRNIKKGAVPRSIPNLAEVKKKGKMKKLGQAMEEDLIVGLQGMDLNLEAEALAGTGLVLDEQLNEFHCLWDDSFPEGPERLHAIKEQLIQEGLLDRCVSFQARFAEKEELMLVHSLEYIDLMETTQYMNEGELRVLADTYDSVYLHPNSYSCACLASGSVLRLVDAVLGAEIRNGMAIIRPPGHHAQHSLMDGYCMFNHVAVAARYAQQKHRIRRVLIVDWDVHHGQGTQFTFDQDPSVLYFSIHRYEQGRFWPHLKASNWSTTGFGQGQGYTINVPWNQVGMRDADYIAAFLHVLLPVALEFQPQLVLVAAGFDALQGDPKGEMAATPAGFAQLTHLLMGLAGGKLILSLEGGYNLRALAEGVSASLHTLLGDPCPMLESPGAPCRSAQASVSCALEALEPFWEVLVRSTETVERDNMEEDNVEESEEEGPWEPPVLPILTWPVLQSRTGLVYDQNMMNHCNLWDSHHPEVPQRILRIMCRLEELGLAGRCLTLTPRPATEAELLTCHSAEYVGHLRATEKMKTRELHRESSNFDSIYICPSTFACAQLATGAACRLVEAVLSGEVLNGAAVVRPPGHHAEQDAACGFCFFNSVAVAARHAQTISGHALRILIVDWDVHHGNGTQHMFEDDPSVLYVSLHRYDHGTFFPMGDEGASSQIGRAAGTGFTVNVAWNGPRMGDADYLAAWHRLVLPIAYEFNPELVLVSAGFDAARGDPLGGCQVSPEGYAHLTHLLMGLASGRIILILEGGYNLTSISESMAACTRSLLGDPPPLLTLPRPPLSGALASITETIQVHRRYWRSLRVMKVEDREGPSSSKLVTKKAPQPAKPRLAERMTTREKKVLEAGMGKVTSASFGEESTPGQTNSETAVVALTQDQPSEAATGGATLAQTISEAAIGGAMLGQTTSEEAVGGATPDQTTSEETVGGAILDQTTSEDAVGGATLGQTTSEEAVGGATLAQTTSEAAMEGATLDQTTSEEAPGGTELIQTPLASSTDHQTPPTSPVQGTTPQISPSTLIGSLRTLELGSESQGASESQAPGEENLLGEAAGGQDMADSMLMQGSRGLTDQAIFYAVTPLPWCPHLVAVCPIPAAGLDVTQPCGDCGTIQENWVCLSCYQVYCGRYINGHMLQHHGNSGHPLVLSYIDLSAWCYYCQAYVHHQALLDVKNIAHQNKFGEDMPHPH

Compound: COc1ccccc1NC(=O)NCc1ccc(C(N)=O)cc1 [Compound 1]
- IC50 (HDAC1; Table 1A, mean of two experiments ± standard deviation, read-out: HDAC1 IC50): 0.265 ± 0.059 µM
- IC50 (HDAC6; Table 1A, mean of two experiments ± standard deviation, read-out: HDAC6 IC50): 0.139 ± 0.027 µM

Compound: COc1ccccc1NC(=O)N(CCCO)Cc1ccc(C(=O)NO)cc1 [Compound 5b, N-hydroxy-4-((1-(3-hydroxypropyl)-3-(2-methoxyphenyl)ureido)methyl)-benzamide]
- Growth inhibition of B16 melanoma cells (in words) [1]: performed very poorly

Compound: COCCCN(Cc1ccc(C(=O)NO)cc1)C(=O)Nc1ccccc1 [Compound 5e, N-hydroxy-4-((1-(3-methoxypropyl)-3-phenylureido)methyl)benzamide]
- Fold Selective (HDAC1/HDAC6) (HDAC6; Table 1A): > 400 fold

Compound: CCCCN(Cc1ccc(C(=O)NO)cc1)C(=O)Nc1ccccc1 [Compound 5g, 4-((1-butyl-3-phenylureido)methyl)-N-hydroxybenzamide]
- Growth inhibition of B16 melanoma cells (in words) [1]: capable of inhibiting the growth
- histone H3 acetylation ([2]; concentrations of 1 and 10 μM): observable increase
- acetyl α-tubulin levels ([2]; low nanomolar treatment, 24 h): dose-dependant increase
- histone H3 acetylation ([2]; low nanomolar treatment, 24 h): without a concamanent elevation
- acetyl-tubulin and acetylation status of Histone 3 [3]: increase acetyl-tubulin without modifying the acetylation status of Histone 3
- Tumor growth (B16 melanoma): delayed tumor growth
- Expression of melanoma antigens at the mRNA level [4]: upregulation of melanoma antigens

Compound: O=C(NO)c1ccc(CN(CCc2ccccc2)C(=O)Nc2ccccc2)cc1 [Compound 5h, N-hydroxy-4-((1-phenethyl-3-phenylureido)methyl)benzamide]
- Growth inhibition of B16 melanoma cells (in words) [1]: capable of inhibiting the growth

Compound: COc1ccccc1N1C(=O)N(Cc2ccc(C(=O)NO)cc2)C(C)(C)C1=O [Compound 10a]
- IC50 (HDAC1; [12]): 28.6 µM
- Fold Selective (HDAC1/HDAC6) (HDAC6; Table 2, cyclic urea compounds): 386 fold
- IC50 (HDAC6; [13]): 0.0742 µM

Compound: CC(C)[C@@H]1C(=O)N(c2ccccc2)C(=O)N1Cc1ccc(C(=O)NO)cc1 [Compound 10b]
- IC50 (HDAC1; [12]): 11.8 µM
- Fold Selective (HDAC1/HDAC6) (HDAC6; Table 2, cyclic urea compounds): 531 fold
- IC50 (HDAC6; [13]): 0.0222 µM

Compound: O=C(NO)c1ccc(CN2C(=O)N[C@@H](Cc3ccccc3)C2=O)cc1 [Compound 11a]
- IC50 (HDAC1; [12]): 7.56 µM
- Fold Selective (HDAC1/HDAC6) (HDAC6; Table 2, cyclic urea compounds): 295 fold
- IC50 (HDAC6; [13]): 0.0256 µM

Compound: CCCCN(Cc1ccc(C(=O)NO)cc1)C(=O)Nc1ncccn1 [JB6-22, 4-((1-butyl-3-(pyrimidin-2-yl)ureido)methyl)-N-hydroxybenzamide]
- IC50 (HDAC1; [14]): 2.74 µM
- Selectivity (HDAC1/−6) (HDAC6; Table 1B): 281
- IC50 (HDAC6; [15]): 0.00976 µM
- acetyl-tubulin and acetylation status of Histone 3 [3]: increase acetyl-tubulin without modifying the acetylation status of Histone 3
- Cell proliferation of cancer cells [5]: decrease cell proliferation
- IL-10 production in antigen presenting cells [6]: inhibit IL-10 production

Compound: CCCCN(Cc1ccc(C(=O)NO)cc1)C(=O)Nc1ccc2cn[nH]c2c1 [JB7-19, 4-((1-butyl-3-(1H-indazol-6-yl)ureido)methyl)-N-hydroxybenzamide]
- IC50 (HDAC1; [14]): 0.721 µM
- Selectivity (HDAC1/−6) (HDAC6; Table 1B): 284
- IC50 (HDAC6; [15]): 0.00254 µM
- acetyl-tubulin and acetylation status of Histone 3 [3]: increase acetyl-tubulin without modifying the acetylation status of Histone 3
- Cell proliferation of cancer cells [5]: decrease cell proliferation
- IL-10 production in antigen presenting cells [6]: inhibit IL-10 production

Compound: CCCCN(Cc1ccc(C(=O)NO)cc1)C(=O)Nc1cccc(N(C)C)c1 [JB7-20]
- Selectivity (HDAC1/−6) (HDAC6; Table 1B): 99

Compound: Nc1ccccc1NC(=O)c1ccc(CNc2nccc(-c3cccnc3)n2)cc1 [MGCD0103]
- Inhibition of proliferation, effective concentration range (in words) [7]: low micromolar range
- acetylation of α-tubulin ([3]; Western blot, FIG. 41): unchanged
- Cell cycle effects [8]: variable cell cycle effects

Compound: CN1CCc2c(c3ccccc3n2Cc2ccc(C(=O)NO)cc2)C1 [Tubastatin A]
- Inhibition of proliferation, effective concentration range (in words) [7]: low micromolar range
- acetyl-tubulin and acetylation status of Histone 3 [3]: increase acetyl-tubulin without modifying the acetylation status of Histone 3
- Expression of MHC I [9]: increase of MHC1
- Tumor growth (B16 melanoma): delayed tumor growth
- Anti-melanoma effect in vivo (B16 melanoma; alone or in combination with anti-CLTA4): anti-melanoma effect
- JAK2/STAT3 phosphorylation [10]: inhibits JAK2/STAT3 phosphorylation
- T-cell activation by treated macrophages (macrophages; in vitro): better activators of naIve T-cells
- Expression of co-stimulatory molecules (macrophages; macrophages): increased the expression of co-stimulatory molecules
- IL-10 production (macrophages; macrophages): inhibits IL-10 production
- Antigen-specific T-cell responses to vaccination (antigen-specific T-cells): enhances antigen-specific T-cell responses
- STAT3 phosphorylation [11]: decreased STAT3 phosphorylation
- Antitumor effect (MCL): strong antitumor effect
- Expression of melanoma antigens at the mRNA level [4]: upregulation of melanoma antigens

Compound: Nexturastat B
- In vivo growth of B16 WT melanoma compared with control treatment (B16 WT melanoma): not significantly different
